Test [1] relates to production of peroxidized lipids in a homogenate of rat brain. As to the kind of experiment: Suppression of production of peroxidized lipids in a homogenate of rat brain (TBA method). The class given is biochemical, rat (SD strain). The conditions noted are these: 37° C., 30 minutes. On the procedure: [Suppression of production of peroxidized lipids in a homogenate of rat brain]
SD strain rats (body weight, about 200 g) were sacrificed by cutting down their heads, and the brains were taken out. The brains were homogenated with a 4-fold amount of 0.05 M phosphate-sodium chloride buffer (pH 7.4) and centrifuged at 1,000× g for 10 minutes. The supernatant was kept at -80° C. for storage.
The supernatant was diluted with a 2-fold amount of the same phosphate-sodium chloride buffer as above, and 0.45 ml of the dilution was combined with 30 μl of ethanol per se (vehicle) or ethanol solution containing a test compound, followed by incubation at 37° C. for 30 minutes. The reaction was terminated by addition of a solution of 0.1% butylhydroxytoluene (BHT) (20 μl) in 25% metaphosphoric acid (125 μl). After deproteinization, the peroxidized lipids in the supernatant were measured by the thiobarbituric acid (TBA) method according to the description by Ohkawa et al.: in Anal. Biochem., Vol. 95, page 351 (1979). The amount of peroxidized lipids produced was compared with that in the vehicle applied group and expressed in % control.

Another test deals with T1, HMG-CoA reductase (Rattus norvegicus, UniProt P51639).
T1 construct: Liver microsomes was prepared by using Sprague-Dawley rats; from tissue; host or cells: liver microsomes of Sprague-Dawley rats fed 2% cholestyramine diet
T1 sequence (P51639 1-887): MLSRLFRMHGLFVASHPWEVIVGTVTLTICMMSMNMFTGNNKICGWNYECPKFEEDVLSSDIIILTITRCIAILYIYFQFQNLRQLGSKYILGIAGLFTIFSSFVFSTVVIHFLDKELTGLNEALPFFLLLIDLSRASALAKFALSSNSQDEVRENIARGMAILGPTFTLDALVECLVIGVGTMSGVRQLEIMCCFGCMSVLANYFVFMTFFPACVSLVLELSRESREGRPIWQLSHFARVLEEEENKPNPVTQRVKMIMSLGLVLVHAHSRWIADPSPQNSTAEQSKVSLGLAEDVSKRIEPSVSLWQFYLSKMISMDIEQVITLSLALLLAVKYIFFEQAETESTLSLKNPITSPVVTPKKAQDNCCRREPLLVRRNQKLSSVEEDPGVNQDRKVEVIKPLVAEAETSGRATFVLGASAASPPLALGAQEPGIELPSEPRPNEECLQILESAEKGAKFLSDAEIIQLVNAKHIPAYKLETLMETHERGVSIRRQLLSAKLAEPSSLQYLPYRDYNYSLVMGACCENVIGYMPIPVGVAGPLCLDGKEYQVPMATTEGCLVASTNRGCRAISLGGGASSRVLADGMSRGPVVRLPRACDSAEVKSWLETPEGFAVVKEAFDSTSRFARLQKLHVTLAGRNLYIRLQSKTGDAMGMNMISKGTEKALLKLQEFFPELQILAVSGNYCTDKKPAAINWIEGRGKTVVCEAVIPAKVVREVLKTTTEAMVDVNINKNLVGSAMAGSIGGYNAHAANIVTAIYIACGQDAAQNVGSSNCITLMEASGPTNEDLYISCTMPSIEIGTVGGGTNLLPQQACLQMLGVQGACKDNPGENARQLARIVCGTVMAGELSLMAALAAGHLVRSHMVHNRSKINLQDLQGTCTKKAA
As to the kind of experiment: HMG-CoA reductase inhibitory activity (rat liver microsome). The settings on record: [3-^14 C]HMG-CoA, 37° C., 30 minutes, read-out: HMG-CoA reductase inhibitory activity IC50 (50% inhibition concentration). The class given is biochemical, rat (Sprague-Dawley). How it is done:
[HMG-CoA reductase inhibitory activity]
(1a) Preparation of rat liver microsome
Liver microsomes was prepared by using Sprague-Dawley rats which freely take a general diet containing 2% cholestyramine and water for 2 weeks according to the report of Kuroda et al (Biochim. Biophys. Acta., 486, page 70, 1977). The microsome fraction obtained by centrifuging at 105000× g was washed with a solution containing 15 mM nicotinamide and 2 mM magnesium chloride (in 100 mM potassium phosphate buffer solution, pH 7.4) once. Then, thereto was added equal parts of the buffer solution containing nicotinamide and magnesium chloride to the weight of used liver. The mixture was homogenized, cooled to -80° C., and preserved.
(1b) Measurement of HMG-CoA reductase inhibitory activity
At 0° C., 100 μl of rat liver microsome preserved at -80° C. was melted and diluted with 0.7 ml of cool potassium phosphate buffer (100 mM, pH 7.4). Thereto was added 0.8 ml of 50 mM EDTA solution (the above-mentioned potassium phosphate buffer solution) and 0.4 ml of 100 mM dithiothreitol solution (the above-mentioned potassium phosphate buffer solution) and the mixture was maintained at 0° C. To 1.675 ml of the microsome solution was added 670 μl of 25 mM NADPH solution (the above-mentioned potassium phosphate buffer solution). […] By means of a scintillation counter, specific activity was measured.

The subject of the next test is cholesterol synthesis. The conditions noted are these: disclosed by Nakatani, Farmashia 1988; cited from earlier work.
The mark [2] stands for this setting: concentration of test compound 0.01 mM.
Where [3] appears, read: concentration of test compound 0.1 mM.

Take `CC(C)(C)c1cc(SC[C@@H](O)C[C@@H](O)CC(=O)O)cc(C(C)(C)C)c1O` [Compound No. 3, Sodium (3R,5S)-6-[(3,5-di-tert-butyl-4-hydroxyphenyl)thio]-3,5-dihydroxyhexanoate]: the “Inhibitory rate (% control)” value in test [1] (setting [2]) worked out at 35.7 % control; in test [1] (setting [3]) it was 94.9 % control. The IC50 at HMG-CoA reductase is 54 µM. As for `CC[C@H](C)C(=O)O[C@H]1C[C@@H](C)C=C2C=C[C@H](C)[C@H](CC[C@@H]3C[C@@H](O)CC(=O)O3)[C@H]21` [Lovastatin], the inhibit cholesterol synthesis result in the test with cholesterol synthesis is on record as “inhibit cholesterol synthesis”. Besides, at HMG-CoA reductase, the IC50 amounted to 0.024 µM. Take `CC[C@H](C)C(=O)O[C@H]1CCC=C2C=C[C@H](C)[C@H](CC[C@@H]3C[C@@H](O)CC(=O)O3)[C@H]21` [Mevastatin]: the inhibit cholesterol synthesis result in the test with cholesterol synthesis was “inhibit cholesterol synthesis”. Regarding `CC[C@H](C)C(=O)O[C@H]1C[C@H](O)C=C2C=C[C@H](C)[C@H](CC[C@@H](O)C[C@@H](O)CC(=O)O)[C@H]21` [Pravastatin], the inhibit cholesterol synthesis entry with cholesterol synthesis is recorded as “inhibit cholesterol synthesis”. As to `CC(C)(Sc1cc(C(C)(C)C)c(O)c(C(C)(C)C)c1)Sc1cc(C(C)(C)C)c(O)c(C(C)(C)C)c1` [Probucol], the “Inhibitory rate (% control)” value is on record as 27.8 % control in test [1] (setting [2]) and 58.3 % control in test [1] (setting [3]). In the case of `CCC(C)(C)C(=O)O[C@H]1C[C@@H](C)C=C2C=C[C@H](C)[C@H](CC[C@@H]3C[C@@H](O)CC(=O)O3)[C@H]21` [Simarastatin], in the test on cholesterol synthesis, the inhibit cholesterol synthesis entry is “inhibit cholesterol synthesis”.
